Assay results as given in patent publication US6028102A, “Anticonvulsant drugs and pharmaceutical compositions thereof” (priority 1998, dated 2000).
Entries after “also recorded” stand apart in the source; their conditions may differ.

Tests used:
[1] = rotored ataxia test (neurotoxicity), ip to mice; format: in vivo; details: for TD50: mouse, in vivo, ip
Description: (§1) Screening of Anticonvulsant Activity
(§2) Compounds I-XI were screened in carworth farm #1 mice (ip--in a volume of 0.01 mL/g of body weight) and sprague-Dawley rats (po--in a volume of 0.004 mL/g of body weight) for their anticonvulsant activity and neurotoxicity by the NIH epilepsy Branch [Porter et al, 1984]. The screening procedure involved the following:
(§3) 1) the maximal electroshock (MES) test, which measures seizure spread; 2) the subcutaneous pentylenetetrazol test (sc Met test) which measures seizure threshold; and 3) the rotored ataxia test which assesses neurotoxicity.
TD50 - Neurotoxic dose in 50% of the test animals.

[2] = maximal electroshock (MES) test, ip to mice; format: in vivo; details: for ED50: Mus musculus
Description: as §1, §2, §3
Anticonvulsant activity and neurotoxicity of N-acetyl, N'-
benzylglycinamide (VII) and N-benzyloxycarbonylglycinamide
(IX) following ip administration to mice in comparison to
phthaloylglycinamide and N-valproylglycinamide^a.
MES Maximal electroshock.
(§4) ED50 - Effective dose in 50% of the test animals.

[3] = Pharmacokinetic analysis following iv administration to dogs; format: in vivo; details: for clearance: CL
Description: The experiments were carried out on six male dogs (mongrels), ranging in weight between 18 and 22 kg. In a randomized cross over design, each dog was injected intravenously (in 1.5 mL of DMSO) with a dose of 400 mg of N-acetyl,N'-benzylglycinamide (VII), 404 mg (on dose equivalent to 400 mg of compound VII) of Z-glycinamide (IX) and 406 mg of Z-glycine (VIII). Urine was collected systematically for 12 hours after dosing, by means of an indwelling catheter.
Venous blood samples (6 mL) were collected via an indwelling catheter (from the cephalic vein) at specified intervals following injection (0, 5, 10, 20, 30, 45 minutes and 1, 1.5, 2, 2.5, 3, 4, 5, 6, 7, 8, 10 and 12 hours respectively). The plasma was then immediately separated by centrifugation at 3000 g for 15 minutes and stored at -20° C. Before each assay, the plasma was allowed to reach room temperature, vortexed, centrifuged and the residual clot removed.
Urine samples were collected via a urine catheter at specified intervals following injection (0, 1, 2, 3, 4, 5, 6, 7, 8, 9, 10 and 12 hours respectively), the samples volume were measured and the urine samples were stored at -20° C. Plasma and urine levels of compounds VII, VIII and IX were then assayed by a HPLC assay described herein below.
HPLC Assay for Monitoring N-acetyl,N'-benzylglycinamide (VII) and N-benzyloxycarbonylglycinamide (IX) in Dog Plasma and Urine
Plasma samples are allowed to reach room temperature, vortexed and centrifuged. The plasma was then assayed as follows:
To 0.5 mL of plasma, 10 μg of an internal standard (N-benzyl-oxycarbonylglycinamide (IX)) and 4 mL of tert-butylmethylether were added. The mixture was vigorously vortexed for 30 seconds, centrifuged for 10 minutes at 3000 g, the organic phase was separated and evaporated to dryness (using a vortex evaporator). To the residue, 80 μl of methanol were added, the mixture was vortexed and 30 μl were injected into the HPLC (Schimadzu SCL-10A with a UV-visible detector model SPD-10A).
Urine samples are allowed to reach room temperature, vortexed and centrifuged. The urine was then assayed as follows:
To 0.25 mL of urine, 10 μg of internal standard (N-benzyl-oxycarbonylglycinamide (IX)), 100 μl of hydrochloric acid solution (1 N) and 4 mL of tert-butylmethylether were added. The mixture was vigorously vortexed for 30 seconds and centrifuged for 10 minutes at 3000 g, the organic phase was separated and transferred to another test tube containing 0.5 mL of sodium hydroxide solution (1N), the mixture was vigorously vortexed for 30 seconds, centrifuged for 10 minutes at 3000 g, the organic phase was separated and evaporated to dryness (using a vortex evaporator). To the residue, 80 μl of methanol were added, the mixture was vortexed and 30 μl were injected into the HPLC.
HPLC conditions: HPLC column; Hypersil ODS (C-18) 5μ, 4.6×150 mm; Wavelength: 258 nm; Mobile phase: 60% water, 40% methanol and 0.01% trifluoroacetic acid.
The same assay was used for monitoring N-benzyloxycarbonyl-glycinamide (IX) in dog plasma and dog urine using N-acetyl,N'-benzylglycinamide as an internal standard.
HPLC Assay for Monitoring Z-glycine (VIII) in Dog Plasma and Urine
To 0.5 mL of plasma, 10 μg of internal standard (Z-GABA), 100 μl of hydrochloric acid solution (1N) and 5 mL of tert-butylmethylether were added. The mixture was vigorously vortexed for 30 seconds, centrifuged for 10 minutes at 3000 g, the organic phase was separated and evaporated to dryness (using a vortex evaporator). To the residue, 100 μl of mobile phase were added, the mixture was vortexed and 30 μl were injected to the HPLC.
Urine samples was allowed to reach room temperature, vortexed and centrifuged. The urine was then assayed as follows:
To 0.1 mL of urine, 30 μg of internal standard (Z-GABA) and 5 mL of tert-butylmethylether were added. The mixture was vigorously vortexed for 30 seconds, centrifuged for 10 minutes at 3000 g, the organic phase was separated off. […]

[4] = Partitioning study, blood-plasma concentration ratio; format: in vitro ADME; details: dog blood, 25° C., 5-40 mg/L
Description: The blood-plasma concentration ratio of compounds VII and IX (partitioning study) was carried out at room temperature (25° C.) by spiking known amounts of the compound in six samples of fresh blood taken from a dog prior to drug administration. N-acetyl, N'-benzylglycinamide and Z-glycinamide concentrations were 5, 10, 15, 20, 30 and 40 mg/L. Each blood sample was centrifuged immediately after spiking and the separation of the plasma was carried out according to the procedure described hereinabove. Plasma levels of the two compounds VII and IX were determined by HPLC.

[5] = Blood stability study in dog blood; format: in vitro ADME
Description: Blood samples (4 mL) were then collected at the following times: 0, 1, 2, 3, 4, 5 and 6 hours. Plasma was immediately separated and the compounds concentrations in the plasma assayed by HPLC.

[6] = Blood-brain-barrier crossing after iv injection to rats; format: in vivo; details: 25 mg
Description: (§5) In two separate experiments cold (unlabeled) Z-glycinamdie and Z-glucine were injected intravenously to male rats. For the experiments, the two compounds were dissolved in 0.2 mL of DMSO and were injected at a dose of 25 mg. Blood samples (8 mL each) were collected from the ascending vena cava of an individual rat at 5, 10, 20, 30, 45, 60, 90, 120, 150, 180, 240, 300, 360 and 480 minutes after administering the drug dose. Three rats were sacrificed for each of the aforementioned time measurements and the plasma or tissue obtained from each rat for each time point was averaged. Plasma was immediately separated by centrifugation at 3000 g for 15 minutes and stored at -20° C. until analyzed. Brain and liver were quickly removed at the same time intervals under light ether anesthesia, the excised tissues were immersed in liquid nitrogen for a few minutes and stored at -70° C. until analyzed. Four rats were kept in metabolic cages and the cumulative urine was collected from each rat for 480 minutes after dosing.

[7] = subcutaneous pentylenetetrazol test (sc Met), ip to mice; format: in vivo
Description: as §1, §2, §3, §4

[8] = Metabolism and urinary excretion in rats; format: in vivo; details: iv
Description: as §5
In rats […] of the N-benzyloxycarbonylglycinamide (IX) dose administered is metabolized to Z-glycine and excreted in the urine with the remaining 15% excreted as N-benzyloxycarbonylglycinamide (IX).

[9] = Screening of anticonvulsant activity; format: in vivo, mice; details: for anticonvulsant activity in words: overall finding of the study
Description: as §1, §2, §3
Applicants therefore decided to derivatize glycinamide and the above dipeptides by synthesizing their N-acetyl and N'-benzyl derivatives (compounds IV-VIII). […] Therefore, this compound was further analyzed quantitatively and its ED50 data and protective indices in comparison to phthaloyl glycinamide and valproyl glycinamide--TV 1901 [17] are presented in Table 2. As a consequence of their anticonvulsant activity, the pharmacokinetics of compounds VII and IX were investigated following iv administration (400 mg) to six dogs, and the mean plasma levels of compounds VII and IX are presented in FIGS. 1 and 2, respectively.

Stability in dog plasma = format: in vitro ADME; details: 37° C. and 20° C.
[10] = mice; Kohn et al 1988, 1990, 1991; Conley and Kohn, 1987; cited from earlier work
[11] = 6 hours at physiological conditions (37° C.)

Row | Structure (SMILES) | TD50 [1] | PI, MES (Protective index, ratio of TD50 to ED50) [2] | ED50 [2] | CL ([3]; dog, in vivo) | half-life ([3]; dog, in vivo) | hepatic extraction ratio ([3]; dog, in vivo) | clearance ([3]; dog, in vivo) | MRT ([3]; dog, in vivo, MRT) | Vd ([3]; dog, in vivo, VSS) | Vd ([3]; dog, in vivo, Vss) | stability in dog blood [5, 11] | anticonvulsant activity in words [9] | also measured
1 | NC(=O)CNC(=O)OCc1ccccc1 [IX, N-benzyloxycarbonylglycinamide] | 230 mg/kg | 5.0 | 46 mg/kg | 10.7 ± 4.3 L/h | 138 ± 78 min | 0.02 | 183 mL/min | 3.3 ± 1.8 h | 33 ± 10 L | 33 ± 10 L | stable | showed anticonvulsant activity in mice; also recorded: active | metabolised ([3]; dog, in vivo): 80 ± 14%; pharmacokinetics and elimination in words ([3]; dogs): mainly metabolized to Z-glycine; also recorded: eliminated from the body mainly by metabolism; pharmacokinetics and elimination in words ([3]; dogs, listed as Z-glycinamide): mainly metabolized to the inactive Z-glycine; plasma to blood ratio [4]: 0.95±0.05; crossing of the blood-brain-barrier [6]: crossed the blood-brain-barrier more readily than does Z-glycine; PI, sc Met (Protective index, ratio of TD50 to ED50) [7]: 2.4; ED50 ([7]; Mus musculus): 95 mg/kg; dose metabolized to Z-glycine and excreted in the urine ([8]; rat, in vivo, 480 min): 75%; site of metabolism ([8]; rats): occurs primarily in the liver
2 | CC(=O)NCC(=O)NCc1ccccc1 [compound VII, N-Acetyl,N'-benzylglycinamide] | > 200 mg/kg | 2.3 | 88 mg/kg | 6.8 ± 0.84 L/h | 126 ± 24 min | 0.0125 | 107 mL/min | 3.3 ± 0.8 h | 21 ± 4 L | 20 ± 4 L | unstable | active | neurotoxic signs ([1]; at a dose as high as 300 mg/kg): did not show neurotoxic signs; MRT ([3]; dog, in vivo): 3.0 ± 0.6 h; pharmacokinetics and elimination in words ([3]; dog, in vivo): eliminated from the body mainly by metabolism; t1/2 ([3]; dog, in vivo): 2.1 ± 0.5 h; Vd ([3]; dog, in vivo, Vβ): 19 ± 6 L; stability in dog blood ([5]; 20° C.): unstable; stability in dog plasma (Stability in dog plasma): stable; anticonvulsant activity in MES test [10]: active at a higher dose of 300 mg/kg; anticonvulsant activity ([9]; ip administration of 100 mg/kg to mice): showed anticonvulsant activity
